Assay results reported in patent US11352396B2, “Antimicrobial peptides and methods of using same” (Zoetis Services LLC, priority 2017, dated 2022).

How the values were obtained:
E. coli ATCC 25922 = assay type: cell-based; conditions: E. coli 25922, Table 6
Method in brief: (§1)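 Broth microdilution followed CLSI VET01-S2, with peptides serially diluted to in-assay concentrations of 50 μM to 0.05 μM. A 0.5 McFarland inoculum diluted 1:250 in Mueller-Hinton Broth was incubated with peptide for 18-20 hours. MIC was read visually as the first well without visible growth.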

[1] = system: MSSP (Methicillin-Susceptible Staphylococcus pseudintermedius); test: MIC against selected strains of MSSP; assay type: cell-based; set-up: MIC MSSP 49051 / MIC MSSP 81923 / MIC MSSP 84250 / Effect on MSSP 86000 / Effect on MSSP 72036 / Effect on MSSP 78032: unit not given beside the values; Effect on MSSP 71990 / Effect on MSSP 86001 / Effect on MSSP 72191 / Effect on MSSP 76986 / Effect on MSSP 77378 / Effect on MSSP 81923 / Effect on MSSP 84250 / Effect on MSSP 84658: unit: µM; conditions: for SP 49051: S. pseudintermedius 49051, Table 6; for Effect on MSSP 71990: strain 71990, Table 5; for Effect on MSSP 72036: strain 72036, Table 5; for Effect on MSSP 72191: strain 72191, Table 5; for Effect on MSSP 76986: strain 76986, Table 5; for Effect on MSSP 77378: strain 77378, Table 5; for Effect on MSSP 78032: strain 78032, Table 5; for Effect on MSSP 81923: strain 81923, Table 5; for Effect on MSSP 84250: strain 84250, Table 5; for Effect on MSSP 84658: strain 84658, Table 5; for Effect on MSSP 86000: strain 86000, Table 5; for Effect on MSSP 86001: strain 86001, Table 5
Method in brief: (§2)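 Broth microdilution MIC following CLSI VET01-S2: peptides titrated 50 μM to 0.05 μM in assay, inoculum a 0.5 McFarland suspension diluted 1:250 in Mueller-Hinton broth. Incubated overnight (18–20 h); MIC taken visually as lowest concentration without visible growth.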

S. aureus ATCC 29213 = assay type: cell-based; set-up: key to SA 29213: MIC in μM (lowest conc. with no visible growth); conditions: S. aureus 29213, Table 6
Method in brief: as §1

cRBC = assay type: cell-based, canine
Method in brief: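 Washed, plasma-free red cells were incubated with peptide titrated from 50 µM to 0.05 µM for 1 h at 37 °C. Hemolysis was read as OD at 405 nm, scaled between phosphate buffer alone (0%) and 1% Triton X-100 (100%).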

[2] = system: MRSP (Methicillin-Resistant Staphylococcus pseudintermedius); test: MIC against selected strains of MRSP; assay type: cell-based; set-up: key to MIC MRSP 72192 / MIC MRSP 76923 / MR 71994 / Mr 88493 / MR 72035 / MR 72192 / MR 76923 / MR 79882 / MR 80279 / MR 81926 / MR 86002 / MR 87665: MIC in μM (visual, first well with no growth); conditions: for MR 71994: MRSP strain 71994, Table 6; for MR 72035: MRSP strain 72035, Table 6; for MR 72192: MRSP strain 72192, Table 6; for MR 76923: MRSP strain 76923, Table 6; for MR 79882: MRSP strain 79882, Table 6; for MR 80279: MRSP strain 80279, Table 6; for MR 81926: MRSP strain 81926, Table 6; for MR 86002: MRSP strain 86002, Table 6; for MR 87665: MRSP strain 87665, Table 6; for Mr 88493: MRSP strain 88493, Table 6
Method in brief: as §2

[3] = system: Canine-derived epithelial keratinocyte (CPEK) cells; assay type: cell-based
Method in brief: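 CPEK cells were dosed with peptides at 50 μM to 0.05 μM and incubated overnight at 37 °C, 5% CO2. Viability was read by CellTiter-Glo luminescence. Percent effect was normalised to 0.1% Triton X-100 (high) and phosphate buffer alone (zero).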

Row | Substance | EC 25922 (E. coli ATCC 25922) [µM] | SP 49051 [1] | Effect on MSSP 71990 [1] | Effect on MSSP 72036 [1] | Effect on MSSP 72191 [1] | Effect on MSSP 76986 [1] | Effect on MSSP 77378 [1] | Effect on MSSP 78032 [1] | Effect on MSSP 81923 [1] | Effect on MSSP 84250 [1] | Effect on MSSP 84658 [1] | Effect on MSSP 86000 [1] | Effect on MSSP 86001 [1] | SA 29213 (S. aureus ATCC 29213) | cRBC (50 μM) (cRBC) | MR 71994 [2] | MR 72035 [2] | MR 72192 [2] | MR 76923 [2] | MR 79882 [2] | other results
1 | 104 (KWCFRVCYFGICYRRCRD; Artificial Antimicrobial peptide) [compound 104] | 3.1 | 1.6 | 1.6 | 3.1 | 1.6 | 1.6 | 1.6 | 1.6 | 3.1 | 3.1 | 1.6 | 3.1 | 1.6 | 6.2 | 100.6 | 3.1 | 1.6 | 1.6 | 1.6 | 1.6 | MR 80279 [2]: 1.6; MR 81926 [2]: 1.6; MR 86002 [2]: 1.6; MR 87665 [2]: 3.1; Mr 88493 [2]: 3.1; CPEK (50 μM) [3]: 6.0
2 | 107 (KWCFRVCWRGICYRRCRD; Artificial Antimicrobial peptide) [compound 107] | 3.1 | 1.6 | 1.6 | 1.6 | 1.6 | 1.6 | 1.6 | 1.6 | 1.6 | 1.6 | 1.6 | 1.6 | 1.6 | 3.1 | 101.8 | 1.6 | 3.1 | 1.6 | 1.6 | 0.8 | MR 80279 [2]: 1.6; MR 81926 [2]: 1.6; MR 86002 [2]: 1.6; MR 87665 [2]: 1.6; Mr 88493 [2]: 1.6; CPEK (50 μM) [3]: 26.3
3 | 31 (PWCFRVCYRGICYRRCRD; Artificial Antimicrobial peptide) [compound 31] | 1.6 | 1.6 | 1.6 | 1.6 | 1.6 | 1.6 | 1.6 | 1.6 | 1.6 | 1.6 | 1.6 | 1.6 | 1.6 | 3.1 | 43.5 | 1.6 | 1.6 | 1.6 | 1.6 | 1.6 | MR 80279 [2]: 1.6; MR 81926 [2]: 1.6; MR 86002 [2]: 1.6; MR 87665 [2]: 1.6; Mr 88493 [2]: 1.6; CPEK (50 μM) [3]: 11.0
4 | 112 (KWCFRVCYRGICYRRCKD; Artificial Antimicrobial peptide) [compound 112] | 1.6 | 1.6 | 1.6 | 1.6 | 1.6 | 1.6 | 0.8 | 1.6 | 1.6 | 1.6 | 1.6 | 1.6 | 1.6 | 3.1 | 61.0 | 1.6 | 1.6 | 1.6 | 1.6 | 0.8 | MR 80279 [2]: 0.8; MR 81926 [2]: 1.6; MR 86002 [2]: 1.6; MR 87665 [2]: 1.6; Mr 88493 [2]: 1.6; CPEK (50 μM) [3]: 14.2
5 | 108 (KWCFRVCYGGICYRRCRD; Artificial Antimicrobial peptide) [compound 108] | 0.8 | 3.1 | 3.1 | 3.1 | 3.1 | 3.1 | 3.1 | 3.1 | 3.1 | 3.1 | 3.1 | 3.1 | 3.1 | 12.5 | 27.7 | 3.1 | 3.1 | 3.1 | 3.1 | 3.1 | MR 80279 [2]: 3.1; MR 81926 [2]: 3.1; MR 86002 [2]: 3.1; MR 87665 [2]: 3.1; Mr 88493 [2]: 3.1; CPEK (50 μM) [3]: 9.6
6 | 97 (KRCFRVCYRGICYRRCRD; Artificial Antimicrobial peptide) [compound 97] | 3.1 | 3.1 | 3.1 | 3.1 | 3.1 | 1.6 | 1.6 | 3.1 | 3.1 | 3.1 | 3.1 | 1.6 | 1.6 | 6.2 | 31.2 | 1.6 | 3.1 | 3.1 | 1.6 | 1.6 | MR 80279 [2]: 3.1; MR 81926 [2]: 1.6; MR 86002 [2]: 3.1; MR 87665 [2]: 3.1; Mr 88493 [2]: 3.1; CPEK (50 μM) [3]: 12.9
7 | 109 (KWCFRVCYRRICYRRCRD; Artificial Antimicrobial peptide) [compound 109] | 1.6 | 1.6 | 1.6 | 1.6 | 1.6 | 1.6 | 1.6 | 1.6 | 1.6 | 1.6 | 1.6 | 1.6 | 1.6 | 3.1 | 99.8 | 1.6 | 1.6 | 1.6 | 1.6 | 0.8 | MR 80279 [2]: 1.6; MR 81926 [2]: 1.6; MR 86002 [2]: 1.6; MR 87665 [2]: 1.6; Mr 88493 [2]: 1.6; CPEK (50 μM) [3]: 19.2
8 | 105 (KWCFRVCYRGICYRRCRN; Artificial Antimicrobial peptide) [compound 105] | 3.1 | 1.6 | 1.6 | 1.6 | 1.6 | 1.6 | 0.8 | 1.6 | 1.6 | 1.6 | 3.1 | 1.6 | 1.6 | 6.2 | 97.9 | 1.6 | 1.6 | 1.6 | 1.6 | 0.8 | MR 80279 [2]: 1.6; MR 81926 [2]: 1.6; MR 86002 [2]: 1.6; MR 87665 [2]: 1.6; Mr 88493 [2]: 3.1; CPEK (50 μM) [3]: 8.6
